Test results as given in US20230233569A1 (Revolution Medicines, Inc., priority 2020, published 2023).

Columns and labels:
AsPC-1 (K-Ras G12D) [1] = assay: Potency assay: pERK; assay type: cell-based; details: Homo sapiens, ASPC1, read-out: pERK EC50
AsPC-1 (K-Ras G12D) [2] = assay: CellTiter-Glo cell viability assay; assay type: cell-based; details: Homo sapiens, ASPC1, 120 h, read-out: AsPC-1 Cell Viability assay data IC50, K-Ras G12D, 5-day treatment
In short: (§1)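 Direct compound addition to plated cells; 5-day exposure; ~30 min RT equilibration; CellTiter-Glo luminescence. Normalization: (sample/avg DMSO)*100; 4-parameter logistic curve fit.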

NCI-H358 (K-Ras G12C) = assay: CellTiter-Glo cell viability assay; assay type: cell-based; details: Homo sapiens, NCI-H358, 120 h, read-out: H358 Cell Viability assay data IC50, K-Ras G12C, 5-day treatment
In short: as §1

KRAS G12D = KRAS G12D (Homo sapiens, UniProt P01116+P62937, G12D); assay: Ras-Raf disruption / FRET / MOA assay (BRAF RBD); assay type: biochemical; details: KRAS G12D FRET data IC50, Ras-Raf disruption, with Cyclophilin A
In short: (§2)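 Compound-induced Ras–Cyclophilin A ternary complex disrupting BRAF RBD binding, read as IC50 from reduced TR-FRET ratio relative to DMSO. Final: Ras-GMPPNP 12.5 nM, BRAF RBD 50 nM, Cyclophilin A 25 μM, top compound 30 μM (3-fold, 10 points); 3 h at 25 °C, then 1.5 h with detection antibodies.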

KRAS G12S = KRAS G12S (Homo sapiens, UniProt P01116+P62937, G12S); assay: Ras-Raf disruption / FRET / MOA assay (BRAF RBD); assay type: biochemical; details: KRAS G12S FRET data IC50, Ras-Raf disruption, with Cyclophilin A
In short: as §2

KRAS G12V = KRAS G12V (Homo sapiens, UniProt P01116+P62937, G12V); assay: Ras-Raf disruption / FRET / MOA assay (BRAF RBD); assay type: biochemical; details: KRAS G12V FRET data IC50, Ras-Raf disruption, with Cyclophilin A
In short: as §2

KRAS G13C = KRAS G13C (Homo sapiens, UniProt P01116+P62937, G13C); assay: Ras-Raf disruption / FRET / MOA assay (BRAF RBD); assay type: biochemical; details: KRAS G13C FRET data IC50, Ras-Raf disruption, with Cyclophilin A
In short: as §2

KRAS G13D = KRAS G13D (Homo sapiens, UniProt P01116+P62937, G13D); assay: Ras-Raf disruption / FRET / MOA assay (BRAF RBD); assay type: biochemical; details: KRAS G13D FRET data IC50, Ras-Raf disruption, with Cyclophilin A
In short: as §2

KRAS Q61H = KRAS Q61H (Homo sapiens, UniProt P01116+P62937, Q61H); assay: Ras-Raf disruption / FRET / MOA assay (BRAF RBD); assay type: biochemical
In short: as §2

KRAS WT = KRAS WT (Homo sapiens, UniProt P01116+P62937); assay: Ras-Raf disruption / FRET / MOA assay (BRAF RBD); assay type: biochemical; details: KRAS WT FRET data IC50, Ras-Raf disruption, with Cyclophilin A
In short: as §2

NRAS G12C = NRAS G12C (Homo sapiens, UniProt P01111+P62937, G12C); assay: Ras-Raf disruption / FRET / MOA assay (BRAF RBD); assay type: biochemical; details: NRAS G12C FRET data IC50, NRAS G12C
In short: as §2

NRAS Q61K = NRAS Q61K (Homo sapiens, UniProt P01111+P62937, Q61K); assay: Ras-Raf disruption / FRET / MOA assay (BRAF RBD); assay type: biochemical
In short: as §2

NRAS Q61R = NRAS Q61R (Homo sapiens, UniProt P01111+P62937, Q61R); assay: Ras-Raf disruption / FRET / MOA assay (BRAF RBD); assay type: biochemical
In short: as §2

NRAS WT = NRAS WT (Homo sapiens, UniProt P01111+P62937); assay: Ras-Raf disruption / FRET / MOA assay (BRAF RBD); assay type: biochemical
In short: as §2

KRAS G12C = KRAS G12C (Homo sapiens, UniProt P01116+P62937, G12C); assay: Ras-Raf disruption / FRET / MOA assay (BRAF RBD); assay type: biochemical; details: KRAS G12C FRET data IC50, Ras-Raf disruption, with Cyclophilin A
In short: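 TR-FRET read-out after 1.5 h with anti-His Eu-W1024 (10 nM) and anti-GST APC (50 nM), following 3 h at 25 °C of compound (top 30 μM, 3-fold, 10 points) with 25 μM Cyclophilin A, 12.5 nM GMPPNP-loaded K-Ras G12C and 50 nM BRAF RBD; IC50 reported.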

NRAS Q61K, sequence (P01111 whole entry Q61K): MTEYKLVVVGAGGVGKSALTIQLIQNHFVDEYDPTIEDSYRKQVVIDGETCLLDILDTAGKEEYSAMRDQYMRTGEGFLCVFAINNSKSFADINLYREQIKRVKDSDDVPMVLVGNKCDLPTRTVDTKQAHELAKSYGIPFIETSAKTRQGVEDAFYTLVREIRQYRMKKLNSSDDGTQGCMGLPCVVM
NRAS Q61K, sequence (P62937 whole entry): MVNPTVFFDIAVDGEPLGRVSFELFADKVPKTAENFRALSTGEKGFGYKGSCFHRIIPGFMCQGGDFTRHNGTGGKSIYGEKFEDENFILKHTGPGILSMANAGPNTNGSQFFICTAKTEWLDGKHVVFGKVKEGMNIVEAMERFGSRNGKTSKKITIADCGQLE
KRAS G12D, sequence (P01116 1-169 isoform P01116-2 G12D limits assumed): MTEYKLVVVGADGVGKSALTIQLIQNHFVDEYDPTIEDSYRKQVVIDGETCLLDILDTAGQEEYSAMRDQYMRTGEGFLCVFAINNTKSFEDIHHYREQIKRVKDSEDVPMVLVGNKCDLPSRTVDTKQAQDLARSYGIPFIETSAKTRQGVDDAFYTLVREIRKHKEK
KRAS G12D, sequence (P62937 whole entry): as the sequence (P62937 whole entry) above
KRAS WT, sequence (P01116 1-169 isoform P01116-2 limits assumed): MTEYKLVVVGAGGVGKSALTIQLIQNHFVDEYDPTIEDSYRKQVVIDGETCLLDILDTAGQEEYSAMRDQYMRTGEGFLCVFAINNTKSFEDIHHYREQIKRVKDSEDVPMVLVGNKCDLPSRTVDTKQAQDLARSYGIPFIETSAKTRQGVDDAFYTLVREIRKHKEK
KRAS WT, sequence (P62937 whole entry): as the sequence (P62937 whole entry) above
NRAS WT, sequence (P01111 whole entry): as the sequence (P01111 whole entry Q61K) above, with K61Q counted along it
NRAS WT, sequence (P62937 whole entry): as the sequence (P62937 whole entry) above
KRAS G13D, sequence (P01116 1-169 isoform P01116-2 G13D limits assumed): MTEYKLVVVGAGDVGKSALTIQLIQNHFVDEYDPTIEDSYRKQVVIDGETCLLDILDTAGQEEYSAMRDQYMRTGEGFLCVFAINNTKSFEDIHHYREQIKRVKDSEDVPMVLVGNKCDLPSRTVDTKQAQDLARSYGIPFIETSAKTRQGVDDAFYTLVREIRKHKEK
KRAS G13D, sequence (P62937 whole entry): as the sequence (P62937 whole entry) above
KRAS G13C, sequence (P01116 1-169 isoform P01116-2 G13C limits assumed): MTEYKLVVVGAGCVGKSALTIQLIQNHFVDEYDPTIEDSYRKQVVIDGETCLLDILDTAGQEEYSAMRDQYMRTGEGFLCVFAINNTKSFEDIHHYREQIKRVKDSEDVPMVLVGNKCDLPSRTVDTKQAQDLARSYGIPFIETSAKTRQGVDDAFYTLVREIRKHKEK
KRAS G13C, sequence (P62937 whole entry): as the sequence (P62937 whole entry) above
KRAS G12C, sequence (P01116 1-169 isoform P01116-2 G12C limits assumed): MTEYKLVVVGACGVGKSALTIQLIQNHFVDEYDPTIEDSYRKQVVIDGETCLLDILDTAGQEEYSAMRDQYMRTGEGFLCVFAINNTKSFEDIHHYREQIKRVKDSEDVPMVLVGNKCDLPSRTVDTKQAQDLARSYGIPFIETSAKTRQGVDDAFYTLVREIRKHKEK
KRAS G12C, sequence (P62937 whole entry): as the sequence (P62937 whole entry) above
NRAS Q61R, sequence (P01111 whole entry Q61R): as the sequence (P01111 whole entry Q61K) above, with K61R counted along it
NRAS Q61R, sequence (P62937 whole entry): as the sequence (P62937 whole entry) above
KRAS Q61H, sequence (P01116 1-169 isoform P01116-2 Q61H limits assumed): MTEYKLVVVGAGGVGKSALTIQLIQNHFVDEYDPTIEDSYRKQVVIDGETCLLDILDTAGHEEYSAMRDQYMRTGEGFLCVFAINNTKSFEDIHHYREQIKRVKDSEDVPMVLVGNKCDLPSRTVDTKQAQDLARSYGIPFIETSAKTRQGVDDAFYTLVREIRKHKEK
KRAS Q61H, sequence (P62937 whole entry): as the sequence (P62937 whole entry) above
KRAS G12V, sequence (P01116 1-169 isoform P01116-2 G12V limits assumed): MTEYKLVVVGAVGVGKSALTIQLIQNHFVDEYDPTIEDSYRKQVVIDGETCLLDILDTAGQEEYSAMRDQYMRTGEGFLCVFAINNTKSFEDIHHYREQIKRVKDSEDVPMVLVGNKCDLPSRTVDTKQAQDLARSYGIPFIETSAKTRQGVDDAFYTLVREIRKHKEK
KRAS G12V, sequence (P62937 whole entry): as the sequence (P62937 whole entry) above
KRAS G12S, sequence (P01116 1-169 isoform P01116-2 G12S limits assumed): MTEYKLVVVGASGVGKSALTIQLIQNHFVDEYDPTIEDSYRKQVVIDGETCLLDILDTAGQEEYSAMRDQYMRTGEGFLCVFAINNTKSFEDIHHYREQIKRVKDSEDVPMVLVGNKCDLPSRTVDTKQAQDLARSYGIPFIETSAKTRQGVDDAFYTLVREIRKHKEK
KRAS G12S, sequence (P62937 whole entry): as the sequence (P62937 whole entry) above
NRAS G12C, sequence (P01111 whole entry G12C): as the sequence (P01111 whole entry Q61K) above, with G12C, K61Q counted along it
NRAS G12C, sequence (P62937 whole entry): as the sequence (P62937 whole entry) above

Row | SMILES | EC50 (AsPC-1 (K-Ras G12D) [1]) [µM] | IC50 (AsPC-1 (K-Ras G12D) [2]) [µM] | IC50 (NCI-H358 (K-Ras G12C)) [µM] | IC50 (KRAS G12D) [µM] | IC50 (KRAS G12S) [µM] | IC50 (KRAS G12V) [µM] | IC50 (KRAS G13C) [µM] | IC50 (KRAS G13D) [µM] | IC50 (KRAS Q61H) [µM] | IC50 (KRAS WT) [µM] | IC50 (NRAS G12C) [µM] | IC50 (NRAS Q61K) [µM] | IC50 (NRAS Q61R) [µM] | IC50 (NRAS WT) [µM] | IC50 (KRAS G12C) [µM]
1 | CCn1c(-c2cccnc2[C@H](C)OC)c2c3cc(ccc31)-c1cc(O)cc(c1)C[C@H](NC(=O)[C@H](C(C)C)N(C)C(=O)CN(C)C(=O)[C@H]1CN1CC1(C)COC1)C(=O)N1CCC[C@H](N1)C(=O)OCC(C)(C)C2 (stereo partly drawn) [Example 279] | < 5 | 0.1 to 1 | < 0.01 | 0.1 to 1 | 0.01 to 0.1 | 0.01 to 0.1 | 0.01 to 0.1 | 0.1 to 1 | 0.01 to 0.1 | 0.01 to 0.1 | 0.01 to 0.1 | 0.1 to 1 | 0.1 to 1 | 0.01 to 0.1 | 0.01 to 0.1
2 | CCn1c(-c2cccnc2[C@H](C)OC)c2c3cc(ccc31)-c1cc(O)cc(c1)C[C@H](NC(=O)[C@H](C(C)C)N(C)C(=O)CN(C)C(=O)[C@@H]1CN1CC1(C)COC1)C(=O)N1CCC[C@H](N1)C(=O)OCC(C)(C)C2 (stereo partly drawn) [Example 280] | < 5 | 1 to 10 | < 0.01 | 0.01 to 0.1 | 0.01 to 0.1 | 0.01 to 0.1 | 0.01 to 0.1 | 0.1 to 1 | 0.01 to 0.1 | 0.01 to 0.1 | < 0.01 | 0.1 to 1 | 0.1 to 1 | 0.01 to 0.1 | < 0.01
3 | CCn1c(-c2cccnc2[C@H](C)OC)c2c3cc(ccc31)-c1cc(O)cc(c1)C[C@H](NC(=O)[C@H](C(C)C)N(C)C(=O)CN(C)C(=O)[C@@H]1N[C@H]1C1COC1)C(=O)N1CCC[C@H](N1)C(=O)OCC(C)(C)C2 [Example 283] | < 5 | 0.1 to 1 | 0.01 to 0.1 | 0.01 to 0.1 | 0.01 to 0.1 | 0.01 to 0.1 | < 0.01 | 0.01 to 0.1 | 0.01 to 0.1 | 0.01 to 0.1 | 0.01 to 0.1 | 0.1 to 1 | 0.1 to 1 | 0.01 to 0.1 | 0.01 to 0.1
4 | CCn1c(-c2cccnc2[C@H](C)OC)c2c3cc(ccc31)-c1cc(O)cc(c1)C[C@H](NC(=O)[C@H](C(C)C)N(C)C(=O)CN(C)C(=O)[C@@H]1N[C@@H]1C1CCC1)C(=O)N1CCC[C@H](N1)C(=O)OCC(C)(C)C2 [Example 287] | < 5 | 0.1 to 1 | 0.01 to 0.1 | 0.01 to 0.1 | 0.01 to 0.1 | 0.01 to 0.1 | 0.01 to 0.1 | 0.1 to 1 | 0.01 to 0.1 | 0.01 to 0.1 | 0.01 to 0.1 | 0.1 to 1 | 0.1 to 1 | 0.01 to 0.1 | 0.01 to 0.1
5 | CCn1c(-c2cccnc2[C@H](C)OC)c2c3cc(ccc31)-c1cc(O)cc(c1)C[C@H](NC(=O)[C@H](C(C)C)N(C)C(=O)CN(C)C(=O)[C@H]1N[C@H]1C1CCC1)C(=O)N1CCC[C@H](N1)C(=O)OCC(C)(C)C2 [Example 288] | < 5 | 0.1 to 1 | 0.01 to 0.1 | 0.1 to 1 | 0.01 to 0.1 | 0.01 to 0.1 | 0.01 to 0.1 | 0.01 to 0.1 | 0.01 to 0.1 | 0.01 to 0.1 | 0.01 to 0.1 | 0.1 to 1 | 0.1 to 1 | 0.01 to 0.1 | 0.01 to 0.1
